Experimental data taken from patent US20140206681A1, “BTK INHIBITORS” (priority 2013, published 2014).
Read-outs that look alike come from different tables or passages of the source.

Experiments:
HeLa cells = experiment: [3H]Adenosine uptake functional cellular assay; assay type: cell-based; conditions: accumulation of [3H]adenosine into HeLa cells, compound range 10 μM to […], read-out: Adenosine uptake inhibition IC50
Description: Compounds are also screened in an adenosine uptake functional cellular assay using the protocol described below. The adenosine uptake inhibition assay may be used to identify compounds with the potential for a negative cardiovascular side effect.
Adenosine uptake activity was determined by monitoring the accumulation of tritiated adenosine into HeLa cells (ATCC catalog # CCL-2) using a PMT-based radiometric detection instrument. […] These cells were incubated overnight at 37° C. in a humidified atmosphere with 5% (v/v) CO2. After this time the growth medium was removed and replaced with 40 μL assay medium comprising: Hanks balanced salts solution (HBSS; Thermo Fisher Catalog # SH30268.01)+5% (v/v) FBS. […] 40 μL of compound in the assay medium was dispensed into individual wells of the Cytostar-T plates and the plates were incubated for 30 minutes under ambient laboratory conditions. Following this incubation, 20 μL of 500 nM [^3H]adenosine (American Radiolabeled Chemicals Inc. Catalog # ART0287) was added in the assay medium and incubated for a further 60 minutes under ambient laboratory conditions. The amount of radiolabel accumulation was then determined using a Perkin Elmer Topcount NXT microplate reader. In brief, HeLa cells adhere to the bottom of the Cytostar-T plate, uptake of [^3H]adenosine into these cells brings the radiolabel into sufficient proximity to excite the scintillant in the base of the plates. These events are captured by single PMT, time-resolved coincidence counting. IC50 values were determined by 4 parameter robust fit of counts per second values vs. (Log10) compound concentrations.

[1] = biological target: T1, BTK enzyme (recombinant full-length BTK, hBTK) (Homo sapiens, UniProt Q06187); experiment: BTK enzyme activity assay, LANCE TR-FRET; assay type: biochemical; conditions: 50 pM hBTK, 2 μM biotin-A5-peptide, 25 μM ATP; 60 min compound & enzyme incubation; read-out: IC50 BTK activity value
T1 construct: recombinant protein from baculovirus-transfected Sf9 cells: full-length BTK, 6HIS-tag cleaved; 6HIS (cleaved yes); made in house; host or cells: baculovirus-transfected Sf9 cells
T1 sequence (Q06187 whole entry): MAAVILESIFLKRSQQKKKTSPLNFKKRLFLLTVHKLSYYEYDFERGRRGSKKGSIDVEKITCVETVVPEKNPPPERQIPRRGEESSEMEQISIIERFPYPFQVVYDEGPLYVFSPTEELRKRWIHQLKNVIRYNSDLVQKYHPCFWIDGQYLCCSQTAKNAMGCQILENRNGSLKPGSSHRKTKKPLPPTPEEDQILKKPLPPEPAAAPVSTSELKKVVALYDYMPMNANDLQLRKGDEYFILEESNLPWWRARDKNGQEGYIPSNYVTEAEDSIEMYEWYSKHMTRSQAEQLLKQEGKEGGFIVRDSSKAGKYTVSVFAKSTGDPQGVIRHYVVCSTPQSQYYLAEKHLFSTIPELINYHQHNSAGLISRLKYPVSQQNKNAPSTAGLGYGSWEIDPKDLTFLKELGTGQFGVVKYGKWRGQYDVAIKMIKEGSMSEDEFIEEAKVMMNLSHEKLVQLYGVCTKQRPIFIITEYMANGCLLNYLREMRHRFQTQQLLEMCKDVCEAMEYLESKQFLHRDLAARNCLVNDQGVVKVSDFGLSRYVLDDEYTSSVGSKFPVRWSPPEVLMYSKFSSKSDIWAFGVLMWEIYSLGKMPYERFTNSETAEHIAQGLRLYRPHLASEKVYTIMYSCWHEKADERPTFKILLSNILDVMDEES

Row | IC50 (HeLa cells) | IC50 [1] | IC50 (HeLa cells; Homo sapiens, HeLa) | Molecule
1 |  | 0.058 nM | 71.7 nM | CC1CC(=O)N2C[C@H](c3nc(-c4ccc(C(=O)Nc5cc(C(F)(F)F)ccn5)cc4)c4c(N)nccn34)CC[C@H]12 (stereo in doubt) [Example 63, 4-{8-amino-3-[(1S,6R,8aR)-1-methyl-3-oxooctahydroindolizin-6-yl]imidazo[1,5-a]pyrazin-1-yl}-N-[4-(trifluoromethyl)pyridin-2-yl]benzamide]
2 |  | 0.085 nM | 132 nM | CC1CC(=O)N2C[C@H](c3nc(-c4ccc(C(=O)Nc5cc(C(F)(F)F)ccn5)cc4)c4c(N)nccn34)CC[C@@H]12 (stereo in doubt) [Example 65, 4-{8-amino-3-[(1R,6R,8aS)-1-methyl-3-oxooctahydroindolizin-6-yl]imidazo[1,5-a]pyrazin-1-yl}-N-[4-(trifluoromethyl)pyridin-2-yl]benzamide]
3 |  | 0.18 nM | 233 nM | Nc1nccn2c([C@@H]3CC[C@H]4CCC(=O)N4C3)nc(-c3ccc(C(=O)Nc4cc(C5CC5)ccn4)cc3)c12 [Example 19, 4-{8-amino-3-[(6R,8aS)-3-oxooctahydroindolizin-6-yl]imidazo[1,5-a]pyrazin-1-yl}-N-(4-cyclopropylpyridin-2-yl)benzamide]
4 |  | 2.2 nM | 2380 nM | Nc1nccn2c([C@@H]3CC[C@H]4CCC(=O)N4C3)nc(-c3ccc(C(=O)Nc4nccc(C(F)(F)F)n4)cc3)c12 [Example 20]
5 |  | 0.21 nM | 234 nM | CC(F)(F)c1ccnc(NC(=O)c2ccc(-c3nc([C@@H]4CC[C@H]5CCC(=O)N5C4)n4ccnc(N)c34)c(F)c2)c1 [Example 21, 4-{8-amino-3-[(6R,8aS)-3-oxooctahydroindolizin-6-yl]imidazo[1,5-a]pyrazin-1-yl}-N-[4-(1,1-difluoroethyl)pyridin-2-yl]-3-fluorobenzamide]
6 |  | 0.11 nM | 4.13 nM | Nc1nccn2c([C@@H]3CC[C@H]4CCC(=O)N4C3)nc(-c3ccc(C(=O)Nc4cc(C(F)(F)F)ccn4)cc3F)c12 [Example 23, 4-{8-amino-3-[(6R,8aS)-3-oxooctahydroindolizin-6-yl]imidazo[1,5-a]pyrazin-1-yl}-3-fluoro-N-[4-(trifluoromethyl)pyridin-2-yl]benzamide]
7 |  |  | 124 nM | CN1CC[C@@H]2CC[C@@H](c3nc(-c4ccc(C(=O)Nc5cc(C(F)(F)F)ccn5)cc4)c4c(N)nccn34)CN2C1=O [Example 83, 4-(8-amino-3-((4aS,7R)-2-methyl-1-oxooctahydro-1H-pyrido[1,2-c]pyrimidin-7-yl)imidazo[1,5-a]pyrazin-1-yl)-N-(4-(trifluoromethyl)pyridin-2-yl)benzamide]
8 |  |  | 155 nM | CN1CC[C@H]2CC[C@H](c3nc(-c4ccc(C(=O)Nc5cc(C(F)(F)F)ccn5)cc4)c4c(N)nccn34)CN2C1=O [Example 84, 4-(8-amino-3-((4aR,7S)-2-methyl-1-oxooctahydro-1H-pyrido[1,2-c]pyrimidin-7-yl)imidazo[1,5-a]pyrazin-1-yl)-N-(4-(trifluoromethyl)pyridin-2-yl)benzamide]
9 |  |  | 699 nM | COc1cc(C(=O)Nc2cc(C(F)(F)F)ccn2)ccc1-c1nc([C@@H]2CC[C@H]3CCC(=O)N3C2)n2ccnc(N)c12 [Example 88, 4-(8-amino-3-((6R,8aS)-3-oxooctahydroindolizin-6-yl)imidazo[1,5-a]pyrazin-1-yl)-3-methoxy-N-(4-(trifluoromethyl)pyridin-2-yl)benzamide]
10 |  | 0.93 nM |  | Cn1nc(NC(=O)c2ccc(-c3nc([C@@H]4CC[C@H]5CCC(=O)N5C4)n4ccnc(N)c34)cc2)cc1C1CC1 [Example 181, 4-{8-amino-3-[(6R,8aS)-3-oxooctahydroindolizin-6-yl]imidazo[1,5-a]pyrazin-1-yl}-N-(5-cyclopropyl-1-methyl-1H-pyrazol-3-yl)benzamide]
11 |  | 155 nM |  | CCOC(=O)c1oc(NC(=O)c2ccc(-c3nc([C@@H]4CC[C@H]5CCC(=O)N5C4)n4ccnc(N)c34)cc2)nc1C(F)(F)F [Example 184, ethyl 2-{[(4-{8-amino-3-[(6R,8aS)-3-oxooctahydroindolizin-6-yl]imidazol[1,5-a]pyrazin-1-yl}phenyl)carbonyl]amino}-4-(trifluoromethyl)-1,3-oxazole-5-carboxylate]
12 |  | 6.9 nM |  | Cc1cc(C(=O)Nc2cc(C(F)(F)F)n(C)n2)ccc1-c1nc([C@@H]2CC[C@H]3CCC(=O)N3C2)n2ccnc(N)c12 [Example 186, 4-{8-amino-3-[(6R,8aS)-3-oxooctahydroindolizin-6-yl]imidazo[1,5-a]pyrazin-1-yl}-3-methyl-N-[1-methyl-5-(trifluoromethyl)-1H-pyrazol-3-yl]benzamide]
13 |  | 0.2 nM |  | CCOc1cc(C(=O)Nc2cc(C(F)(F)F)ccn2)ccc1-c1nc([C@@H]2CC[C@@H]3N(C2)C(=O)CC3(C)C)n2ccnc(N)c12 [Example 222, 4-(8-amino-3-((6R,8aS)-1,1-dimethyl-3-oxooctahydroindolizin-6-yl)imidazo[1,5-a]pyrazin-1-yl)-3-ethoxy-N-(4-(trifluoromethyl)pyridin-2-yl)benzamide]

The next lines start with the molecule.

Row | Molecule | IC50 (HeLa cells) | IC50 [1] | IC50 (HeLa cells; Homo sapiens, HeLa)
14 | 4-(8-amino-3-((6R,8aS)-3-oxooctahydroindolizin-6-yl)imidazo[1,5-a]pyrazin-1-yl)-3-(2-methoxyethoxy)-N-(4-(trifluoromethyl)pyridin-2-yl)benzamide [Example 199] | 7090 nM | 1.9 nM | 
15 | CN1C[C@@H]2CC[C@@H](c3nc(-c4ccc(C(=O)Nc5cc(C(F)(F)F)ccn5)cc4)c4c(N)nccn34)CN2C1=O [Example 3, 4-(8-amino-3-((6R,8aS)-2-methyl-3-oxooctahydroimidazo[1,5-a]pyridin-6-yl)imidazo[1,5-a]pyrazin-1-yl)-N-(4-(trifluoromethyl)pyridin-2-yl)benzamide] |  | 7.2 nM | 792 nM
16 | Nc1nccn2c([C@@H]3CC[C@H]4CCC(=O)N4C3)nc(-c3ccc(C(=O)Nc4cc(C(F)(F)F)ccn4)cc3)c12 [Example 4, 4-(8-amino-3-((6R,8aS)-3-oxooctahydroindolizin-6-yl)imidazo[1,5-a]pyrazin-1-yl)-N-(4-(trifluoromethyl)pyridin-2-yl)benzamide] |  | 0.1 nM | 61.9 nM
17 | Nc1nccn2c([C@@H]3CC[C@H]4CCC(=O)N4C3)nc(-c3ccc(C(=O)Nc4ccccn4)cc3)c12 [Example 6, 4-(8-amino-3-((6R,8aS)-3-oxooctahydroindolizin-6-yl)imidazo[1,5-a]pyrazin-1-yl)-N-(pyridin-2-yl)benzamide] |  | 2 nM | 184 nM
18 | Cc1cnc(NC(=O)c2ccc(-c3nc([C@@H]4CC[C@H]5CCC(=O)N5C4)n4ccnc(N)c34)cc2)s1 [Example 8, 4-(8-amino-3-((6R,8aS)-3-oxooctahydroindolizin-6-yl)imidazo[1,5-a]pyrazin-1-yl)-N-(5-methylthiazol-2-yl)benzamide] |  | 2.2 nM | 355 nM
19 | Nc1nccn2c([C@H]3CC[C@@H]4CCC(=O)N4C3)nc(-c3ccc(C(=O)Nc4ccccn4)cc3)c12 [Example 9, 4-(8-amino-3-((6S,8aR)-3-oxooctahydroindolizin-6-yl)imidazo[1,5-a]pyrazin-1-yl)-N-(pyridin-2-yl)benzamide] |  | 194 nM | 287 nM
20 | Nc1nccn2c([C@H]3CC[C@H]4CCC(=O)N4C3)nc(-c3ccc(C(=O)Nc4cc(C(F)(F)F)ccn4)cc3)c12 [Example 10, 4-(8-amino-3-((6S,8aS)-3-oxooctahydroindolizin-6-yl)imidazo[1,5-a]pyrazin-1-yl)-N-(4-(trifluoromethyl)pyridin-2-yl)benzamide] |  | 14.7 nM | 1340 nM
21 | Nc1nccn2c([C@@H]3CC[C@@H]4CCC(=O)N4C3)nc(-c3ccc(C(=O)Nc4cc(C(F)(F)F)ccn4)cc3)c12 [Example 11, 4-(8-amino-3-((6R,8aR)-3-oxooctahydroindolizin-6-yl)imidazo[1,5-a]pyrazin-1-yl)-N-(4-(trifluoromethyl)pyridin-2-yl)benzamide] |  | 15.3 nM | 511 nM
22 | N#Cc1ccnc(NC(=O)c2ccc(-c3nc([C@@H]4CC[C@H]5CCC(=O)N5C4)n4ccnc(N)c34)c(F)c2)c1 [Example 15, 4-{8-amino-3-[(6R,8aS)-3-oxooctahydroindolizin-6-yl]imidazo[1,5-a]pyrazin-1-yl}-N-(4-cyanopyridin-2-yl)-3-fluorobenzamide] |  | 0.21 nM | 71.9 nM
23 | Nc1nccn2c([C@@H]3CC[C@H]4CCC(=O)N4C3)nc(-c3ccc(C(=O)Nc4cc(C5CC5)ccn4)cc3F)c12 [Example 16, 4-{8-amino-3-[(6R,8aS)-3-oxooctahydroindolizin-6-yl]imidazo[1,5-a]pyrazin-1-yl}-N-(4-cyclopropylpyridin-2-yl)-3-fluorobenzamide] |  | 0.2 nM | 75.1 nM
24 | CCc1ccnc(NC(=O)c2ccc(-c3nc([C@@H]4CC[C@H]5CCC(=O)N5C4)n4ccnc(N)c34)cc2)c1 [Example 18, 4-{8-amino-3-[(6R,8aS)-3-oxooctahydroindolizin-6-yl]imidazo[1,5-a]pyrazin-1-yl}-N-(4-ethylpyridin-2-yl)benzamide] |  | 0.16 nM | 63.5 nM
